Starred links: 1 amine or outer side, 2 acyl side, 3 side chain; linkers in the order of their positions; H or OH if unused. Positions of bridges follow the written chain, without caps; N, C: chain ends. Non-standard residues stand in square brackets, D forms with d. Residues, ends and D or L forms follow the SMILES beside them. Groups on a side chain read outwards from the residue. *: point of attachment. X56 = CCCCCCCCCCCC(=O)NCCOCCOCC(=O)NCCOCCOCC(=O)NCC[N+](C)(C)CC(=O)*; X51 = C[N+](C)(C)CCCc1cn(-c2ccc(C[C@H](N[*:1])C(=O)[*:2])cc2)nn1; Me3N+(CH2)2O(CH2)2O(CH2)2CO = C[N+](C)(C)CCOCCOCCC(=O)*; CH2CH2OCH2CH2OCH2CH2NMe3+ = C[N+](C)(C)CCOCCOCC*; Trp(7-Me) = Cc1cccc2c(C[C@H](N)C(=O)O)c[nH]c12; γGlu = O=C(O)[C@H](CCC(=O)[*:2])N[*:1]; 2Nal = N[C@@H](Cc1ccc2ccccc2c1)C(=O)O; 3Pal = N[C@@H](Cc1cccnc1)C(=O)O; Myristoyl = CCCCCCCCCCCCCC(=O)*; Lys(Me) = CNCCCC[C@H](N)C(=O)O; Agb = N=C(N)NCC[C@H](N)C(=O)O; NMeK = CN[C@@H](CCCCN)C(=O)O; Pen = CC(C)(S)[C@H](N)C(=O)O; X31 = N=C(N)NCCOCCC(=O)*; Thp = NC1(C(=O)O)CCOCC1; X3 = C[N+](C)(C)CCCCC*; X76 = N=C(N)NCCOCCOCC*; AEEA = NCCOCCOCC(=O)O; Sar = CNCC(=O)O
Test: Exposed Polar Surface Area (EPSA)
Format: physicochemical
Settings: SFC on Chirex 3014 column; sample 1 mM DMSO stock; read-out: EPSA
Method in brief: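 Compounds, as 1 mM DMSO stock, were injected in duplicate onto an SFC Chirex 3014 column at 35 °C and eluted with a CO2/methanol (20 mM ammonium formate) gradient. EPSA values in Å^2 were derived from retention times using a linear fit to eight calibration standards, reinjected every 20 compounds.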

Row | Compound | EPSA [A^2]
1 | CCCCCCCCCCCCCC(=O)N[C@@H](CCC(=O)NCCOCCOCC(=O)NCCOCCOCC(=O)NCCCC[C@@H]1NC(=O)[C@H](Cc2c[nH]c3c(C)cccc23)NC(=O)[C@H]([C@@H](C)O)NC(=O)[C@H](CCCCNC(=O)COCCOCCNC(=O)COCCOCCNC(=O)CC[C@H](NC(=O)CCCCCCCCCCCCC)C(=O)O)NC(=O)[C@@H](NC(=O)CCOCCOCC[N+](C)(C)C)C(C)(C)SSC(C)(C)[C@@H](C(=O)N[C@@H](Cc2ccc(OCCCCC[N+](C)(C)C)cc2)C(=O)N[C@@H](Cc2ccc3ccccc3c2)C(=O)NC2(C(=O)N[C@@H](CCCCN(C)C(C)=O)C(=O)N[C@@H](CC(N)=O)C(=O)N[C@@H](Cc3cccnc3)C(=O)N(C)CC(=O)N(C)C)CCOCC2)NC1=O)C(=O)O [compound 396, cPEG3aCO-Pen(3)-K(PEG2PEG2gEC14)-T-7MeW-K(PEG2PEG2gEC14)-Pen(3)-TMAPF-2Nal-THP-K(NMeAc)-N-3Pya-Sar-CON(Me)2] ({Me3N+(CH2)2O(CH2)2O(CH2)2CO}-[Pen]K([AEEA-AEEA-γGlu-Myristoyl])T[Trp(7-Me)]K([AEEA-AEEA-γGlu-Myristoyl])[Pen]Y(X3)[2Nal][Thp][Lys(Me)](Ac)N[3Pal][Sar]-NMe2; disulfide 1-6) | 172
2 | CCCCCCCCCCCCCC(=O)N[C@@H](CCC(=O)NCCOCCOCC(=O)NCCOCCOCC(=O)NCCCC[C@@H]1NC(=O)[C@@H](NC(=O)CCOCCOCC[N+](C)(C)C)C(C)(C)SSC(C)(C)[C@@H](C(=O)N[C@@H](Cc2ccc(OCCCCC[N+](C)(C)C)cc2)C(=O)N[C@@H](Cc2ccc3ccccc3c2)C(=O)NC2(C(=O)N[C@@H](CCCCNC(=O)COCCOCCNC(=O)COCCOCCNC(=O)CC[C@H](NC(=O)CCCCCCCCCCCCC)C(=O)O)C(=O)N[C@@H](CC(N)=O)C(=O)N[C@@H](Cc3cccnc3)C(=O)N(C)CC(=O)N(C)C)CCOCC2)NC(=O)[C@H](CCCCN(C)C(C)=O)NC(=O)[C@H](Cc2c[nH]c3c(C)cccc23)NC(=O)[C@H]([C@@H](C)O)NC1=O)C(=O)O [compound 398, cPEG3aCO-Pen(3)-K(PEG2PEG2gEC14)-T-7MeW-K(NMeAc)-Pen(3)-TMAPF-2Nal-THP-K(PEG2PEG2gEC14)-N-3Pya-Sar-CON(Me)2] ({Me3N+(CH2)2O(CH2)2O(CH2)2CO}-[Pen]K([AEEA-AEEA-γGlu-Myristoyl])T[Trp(7-Me)][Lys(Me)](Ac)[Pen]Y(X3)[2Nal][Thp]K([AEEA-AEEA-γGlu-Myristoyl])N[3Pal][Sar]-NMe2; disulfide 1-6) | 168
3 | CCCCCCCCCCCCCC(=O)N[C@@H](CCC(=O)NCCOCCOCC(=O)NCCOCCOCC(=O)NCCCC[C@@H]1NC(=O)[C@H](Cc2c[nH]c3c(C)cccc23)NC(=O)[C@H]([C@@H](C)O)NC(=O)[C@H](CC(=O)N(C)C)NC(=O)[C@@H](NC(=O)CCOCCOCC[N+](C)(C)C)C(C)(C)SSC(C)(C)[C@@H](C(=O)N[C@@H](Cc2ccc(OCCCCC[N+](C)(C)C)cc2)C(=O)N[C@@H](Cc2ccc3ccccc3c2)C(=O)NC2(C(=O)N[C@@H](CCCCN(C)C(C)=O)C(=O)N[C@@H](CC(N)=O)C(=O)N[C@@H](Cc3cccnc3)C(=O)N(C)CC(=O)N(C)C)CCOCC2)NC1=O)C(=O)O [compound 399, cPEG3aCO-Pen(3)-N(N(Me)2)-T-7MeW-K(PEG2PEG2gEC14)-Pen(3)-TMAPF-2Nal-THP-K(NMeAc)-N-3Pya-Sar-CON(Me)2] ({Me3N+(CH2)2O(CH2)2O(CH2)2CO}-[Pen]D(NMe2)T[Trp(7-Me)]K([AEEA-AEEA-γGlu-Myristoyl])[Pen]Y(X3)[2Nal][Thp][Lys(Me)](Ac)N[3Pal][Sar]-NMe2; disulfide 1-6) | 157
4 | CC(=O)N(C)CCCC[C@@H]1NC(=O)[C@H](Cc2c[nH]c3c(C)cccc23)NC(=O)[C@H]([C@@H](C)O)NC(=O)[C@H](CC(=O)N(C)C)NC(=O)[C@@H](NC(=O)CCOCCOCC[N+](C)(C)C)C(C)(C)SSC(C)(C)[C@@H](C(=O)N[C@@H](Cc2ccc(OCCOCCOCCNC(=N)N)cc2)C(=O)N[C@@H](Cc2ccc3ccccc3c2)C(=O)NC2(C(=O)N[C@@H](CCCCN(C)C(C)=O)C(=O)N[C@@H](CC(N)=O)C(=O)N[C@@H](Cc3cccnc3)C(=O)N(C)CC(=O)N(C)C)CCOCC2)NC1=O [compound 405, cPEG3aCO-Pen(3)-N(N(Me)2)-T-7MeW-K(NMeAc)-Pen(3)-GPEG3F-2Nal-THP-K(NMeAc)-N-3Pya-Sar-CON(Me)2] ({Me3N+(CH2)2O(CH2)2O(CH2)2CO}-[Pen]D(NMe2)T[Trp(7-Me)][Lys(Me)](Ac)[Pen]Y(X76)[2Nal][Thp][Lys(Me)](Ac)N[3Pal][Sar]-NMe2; disulfide 1-6) | 157
5 | CC(=O)NCCCC[C@@H]1NC(=O)[C@H](Cc2c[nH]c3c(C)cccc23)NC(=O)[C@H]([C@@H](C)O)NC(=O)[C@H](CC(N)=O)NC(=O)[C@@H](NC(=O)CCOCCOCC[N+](C)(C)C)C(C)(C)SSC(C)(C)[C@@H](C(=O)N[C@@H](Cc2ccc(-n3cc(CCC[N+](C)(C)C)nn3)cc2)C(=O)N[C@@H](Cc2ccc3ccccc3c2)C(=O)NC2(C(=O)N[C@@H](CCCCNC(C)=O)C(=O)N[C@@H](CC(N)=O)C(=O)N[C@@H](Cc3cccnc3)C(=O)N(C)CC(N)=O)CCOCC2)NC1=O [compound 420, cPEG3aCO-Pen(3)-N-T-7MeW-K(Ac)-Pen(3)-F(4TzlTMA3)-2Nal-THP-K(Ac)-N-3Pya-Sar-CONH2] ({Me3N+(CH2)2O(CH2)2O(CH2)2CO}-[Pen]NT[Trp(7-Me)]K(Ac)[Pen][X51][2Nal][Thp]K(Ac)N[3Pal][Sar]-NH2; disulfide 1-6) | 170
6 | CC(=O)NCCCC[C@@H]1NC(=O)[C@H](Cc2c[nH]c3c(C)cccc23)NC(=O)[C@H]([C@@H](C)O)NC(=O)[C@H](CC(N)=O)NC(=O)[C@@H](NC(C)=O)C(C)(C)SSC(C)(C)[C@@H](C(=O)N[C@@H](Cc2ccc(-n3cc(CCC[N+](C)(C)C)nn3)cc2)C(=O)N[C@@H](Cc2ccc3ccccc3c2)C(=O)NC2(C(=O)N[C@@H](CCCCNC(C)=O)C(=O)N[C@@H](CC(N)=O)C(=O)N[C@@H](Cc3cccnc3)C(=O)N(C)CC(N)=O)CCOCC2)NC1=O [compound 423] (Ac-[Pen]NT[Trp(7-Me)]K(Ac)[Pen][X51][2Nal][Thp]K(Ac)N[3Pal][Sar]-NH2; disulfide 1-6) | 161

Continued, values first:

Row | EPSA [A^2] | Compound
7 | 156 | CCCCCCCCCCCCCC(=O)N[C@@H](CCC(=O)NCCOCCOCC(=O)NCCOCCOCC(=O)NCCCC[C@H](NC(=O)C1(NC(=O)[C@H](Cc2ccc3ccccc3c2)NC(=O)[C@H](Cc2ccc(OCCCCC[N+](C)(C)C)cc2)NC(=O)[C@H]2NC(=O)[C@H](CCCCN(C)C(C)=O)NC(=O)[C@H](Cc3c[nH]c4c(C)cccc34)NC(=O)[C@H]([C@@H](C)O)NC(=O)[C@H](CC(=O)N(C)C)NC(=O)[C@@H](NC(=O)CCOCCOCC[N+](C)(C)C)C(C)(C)SSC2(C)C)CCOCC1)C(=O)N[C@@H](CC(N)=O)C(=O)N[C@@H](Cc1cccnc1)C(=O)N(C)CC(=O)N(C)C)C(=O)O [compound 402, cPEG3aCO-Pen(3)-N(N(Me)2)-T-7MeW-K(NMeAc)-Pen(3)-TMAPF-2Nal-THP-K(PEG2PEG2gEC14)-N-3Pya-Sar-CON(Me)2] ({Me3N+(CH2)2O(CH2)2O(CH2)2CO}-[Pen]D(NMe2)T[Trp(7-Me)][Lys(Me)](Ac)[Pen]Y(X3)[2Nal][Thp]K([AEEA-AEEA-γGlu-Myristoyl])N[3Pal][Sar]-NMe2; disulfide 1-6)
8 | 151 | CCCCCCCCCCCC(=O)NCCOCCOCC(=O)NCCOCCOCC(=O)NCC[N+](C)(C)CC(=O)NCCCC[C@@H](C(N)=O)N(C)C(=O)[C@H](Cc1cccnc1)NC(=O)[C@H](CC(N)=O)NC(=O)[C@H](CCCCN(C)C(C)=O)NC(=O)C1(NC(=O)[C@H](Cc2ccc3ccccc3c2)NC(=O)[C@H](Cc2ccc(OCCCCC[N+](C)(C)C)cc2)NC(=O)[C@H]2NC(=O)[C@H](CCCCNC(C)=O)NC(=O)[C@H](Cc3c[nH]c4c(C)cccc34)NC(=O)[C@H]([C@@H](C)O)NC(=O)[C@H](CC(=O)N(C)C)NC(=O)[C@@H](NC(=O)CCOCCOCC[N+](C)(C)C)C(C)(C)SSC2(C)C)CCOCC1 [compound 407, cPEG3aCO-Pen(3)-N(N(Me)2)-T-7MeW-K(Ac)-Pen(3)-TMAPF-2Nal-THP-K(NMeac)-N-3Pya-NMeK(SP6PEG2PEG2C12)-CONH2] ({Me3N+(CH2)2O(CH2)2O(CH2)2CO}-[Pen]D(NMe2)T[Trp(7-Me)]K(Ac)[Pen]Y(X3)[2Nal][Thp][Lys(Me)](Ac)N[3Pal][NMeK](X56)-NH2; disulfide 1-6)
9 | 157 | CC(=O)N[C@@H]1C(=O)N[C@@H](CCNC(=N)N)C(=O)N[C@@H]([C@@H](C)O)C(=O)N[C@@H](Cc2c[nH]c3c(C)cccc23)C(=O)N[C@@H](CCCCN(C)C(C)=O)C(=O)N[C@H](C(=O)N[C@@H](Cc2ccc(OCCOCCOCC[N+](C)(C)C)cc2)C(=O)N[C@@H](Cc2ccc3ccccc3c2)C(=O)NC2(C(=O)N[C@@H](CCCCN(C)C(C)=O)C(=O)N[C@@H](CC(N)=O)C(=O)N[C@@H](Cc3cccnc3)C(=O)N(C)CC(=O)N(C)C)CCOCC2)C(C)(C)SSC1(C)C [compound 412] (Ac-[Pen][Agb]T[Trp(7-Me)][Lys(Me)](Ac)[Pen]Y(CH2CH2OCH2CH2OCH2CH2NMe3+)[2Nal][Thp][Lys(Me)](Ac)N[3Pal][Sar]-NMe2; disulfide 1-6)
10 | 154 | CC(=O)N(C)CCCC[C@@H]1NC(=O)[C@H](Cc2c[nH]c3c(C)cccc23)NC(=O)[C@H]([C@@H](C)O)NC(=O)[C@H](CC(=O)N(C)C)NC(=O)[C@@H](NC(=O)CCOCCNC(=N)N)C(C)(C)SSC(C)(C)[C@@H](C(=O)N[C@@H](Cc2ccc(OCCOCCOCC[N+](C)(C)C)cc2)C(=O)N[C@@H](Cc2ccc3ccccc3c2)C(=O)NC2(C(=O)N[C@@H](CCCCN(C)C(C)=O)C(=O)N[C@@H](CC(N)=O)C(=O)N[C@@H](Cc3cccnc3)C(=O)N(C)CC(=O)N(C)C)CCOCC2)NC1=O [compound 413, cPEG2gCO-Pen(3)-N(N(Me)2)-T-7MeW-K(NMeAc)-Pen(3)-APEG3F-2Nal-THP-K(NMeAc)-N-3Pya-Sar-CON(Me)2] (X31-[Pen]D(NMe2)T[Trp(7-Me)][Lys(Me)](Ac)[Pen]Y(CH2CH2OCH2CH2OCH2CH2NMe3+)[2Nal][Thp][Lys(Me)](Ac)N[3Pal][Sar]-NMe2; disulfide 1-6)

From patent publication US20260022143A1, “Cyclic Peptide Inhibitors of IL-23” (JANSSEN PHARMACEUTICA NV, priority 2022, published 2026)
